The subject of one assay is PKR. Description: Immunoblot analysis of PKR (T446) phosphorylation in U2OS cells. Format: cell-based, human. The conditions noted are these: 2 mM LLOMe for 30 min. From the text:
The level of phosphorylation of eIF2α (S51) is quantified based on three independent experiments. […] Red masks, computer-identified G3BP1 puncta. […] Ctrl, control (untreated cells). Data, means±SEM; HCM: n≥3 (each experiment: 500 valid primary objects/cells per Well, ≥5 Well s/sample). *p<0.05, **p<0.01, ANOVA. See also FIG. 2S.
Background: Immunoblotting shows a protein as a band on a membrane.

The next assay deals with ALIX, PKR and PACT. The assay is described as follows: Co-IP analysis of interactions among FLAG-ALIX, PKR and PACT in HEK293T cells. It is filed as cell-based, human. The conditions noted are these: 1 mM LLOMe for 30 min. The protocol: HEK293T cells expressing FLAG (control) or FLAG-ALIX Were treated with 1 mM LLOMe for 30 min. Cell lysates Were immunoprecipitated with anti-FLAG antibody and immunoblotted for indicated proteins. […] FL (full length); Bro1 (Bro1 domain); V domain; PRD (proline-rich domain). Numbers, residue positions. (ii) Schematic illustration of the Ca^2+/ALG-2-induced open conformation of ALIX. […] HEK293T cells expressing FLAG tagged ALIX mutants and Myc-PKR Were treated with 1 mM LLOMe for 30 min. Cell lysates Were immunoprecipitated with anti-GFP antibody and immunoblotted for indicated proteins. FIG. 12F Analysis of proteins associated with purified lysosomes (LysoIP; TMEM192-3×HA) from HEK293T cells transfected with scrambled siRNA as control (SCR), or ALIX siRNA for knockdown (ALIX^KD). Cells Were treated with 1 mM LLOMe for 30 min. FIG. 12G Schematic summary of the findings in FIGS. 5 and S5. One of three independent western Blot experiments shown. See also FIG. 1S1.

The test system of a further assay is GABARAP. The assay is described as follows: Immunoblot analysis of GABARAP lipidation in U2OS cells. It is filed as cell-based, human. Particulars: 2 mM LLOMe, indicated time points.
Assay [1] has as its system G3BP1 puncta in Huh7 cells. Description: HCM quantification of G3BP1 puncta in Huh7 cells. It is filed as cell-based, human. The conditions noted are these: 2 mM LLOMe for 30 min.
Assay [2] relates to mTOR. Description: mTOR/mTORC1 activity by phosphorylation of its substrates (4EBP1 S65, ULK1 S757, S6K1 T389) in U2OS cells. It is filed as cell-based, human. Particulars: U2OS cells.
The subject of assay [3] is polyA RNA in G3BP1 puncta. Description: Confocal microscopy of G3BP1 and polyA RNA (Cy3-oligo[dT]) by FISH in U2OS cells. Format: cell-based, human. Particulars: 2 mM LLOMe for 30 min.
For assay [4], the system named is eIF2α (S51) phosphorylation. The assay is described as follows: Immunoblot analysis of eIF2α (S51) phosphorylation in U2OS cells. The conditions noted are these: U2OS cells. It is filed as cell-based, human.
The test system of assay [5] is mTOR. Description: Immunoblot analysis of S6K1 (T389) phosphorylation in HeLa cells. Format: cell-based, human. Particulars: HeLa (WT) cells, 4 mM LLOMe for 30 min.
Assay [6] has as its system G3BP1+ SGs and lysosomes (LAMP2). The assay is described as follows: HCM quantification of G3BP1+ SGs associated with lysosomes (LAMP2). The conditions noted are these: 30 min after exposure to LLOMe. It is filed as cell-based. The procedure: Do SGs induced by lysosomal damage associate with lysosomes? The inventors addressed this by imaging analysis. By confocal fluorescence microscopy, the majority of G3BP1-positive SGs formed during lysosomal damage were either independent of lysosomes or juxtaposed to lysosomes (FIG. 3SA). By HCM quantification, only 10% of G3BP1^+ SGs appeared associated with lysosomes (LAMP2) 30 min after exposure to lysosomal damaging agent LLOMe. The inventors then asked the question whether SGs formed in response to lysosomal damage initiate as a nidus on the lysosomal surface. Using live microscopy, the inventors observed that the majority of SGs Were forming in locations independent of lysosomes (FIG. 3SB).

For assay [7], the system named is G3BP1 puncta (stress granules) in U2OS cells. The assay is described as follows: HCM quantification of G3BP1 puncta (stress granule formation) in U2OS cells. It is filed as cell-based, human.
Setting [8] is: indicated dose of LLOMe for 30 min.
Where [9] appears, read: 2 mM LLOMe 30 min followed by 1 h washout.

Experimental findings from patent US20240409935A1, “Atg8ylation coordinates stress granule formation and mTOR inactivation in response to lysosomal damage” (priority 2023, published 2024) are described below.

Structures are written as SMILES.

On to `COC(=O)[C@H](CC(C)C)NC(=O)[C@@H](N)CC(C)C` [LLOMe, L-leucyl-L-leucine methyl ester], for which, in the assay with PKR, the “PKR activation assessed by phosphorylation at Thr446” value was “PKR was activated”. Also, the “interaction between FLAG-ALIX and endogenous PKR and PACT (co-IP)” value in the assay with ALIX, PKR and PACT was “notably enhanced”. Besides, the GABARAP lipidation entry in the assay with GABARAP is given as “GABARAP was lipidated”. In [1], the “SG response (G3BP1 puncta)” value is “SG response was detected”. Moreover, the “ULK1 phosphorylation by mTOR at Ser757” value in the assay on mTOR [2] (2 mM LLOMe for 30 min) is given as “diminished”. Further, the “mTOR activity as measured by 4EBP1 phosphorylation” value with mTOR [2] (2 mM LLOMe, indicated time points) is listed as “inhibition of mTOR”. In the assay with mTOR [2] (setting [8]), the “mTORC1 inactivation (4EBP1 S65), dose dependence” value is listed as “mTORC1 inactivation in a dose-dependent manner”. For the same compound, the “overlap of G3BP1 puncta with polyA RNA probe (Cy3-oligo-dT, FISH)” value in assay [3] was “completely overlapped with polyA RNA probe”. Besides, the “eIF2α pS51 response after LLOMe washout” value in assay [4] (setting [9]) is given as “subsided”. Further, the “phosphorylation of eIF2α on Ser51” value in assay [4] (2 mM LLOMe for 30 min) was “induced phosphorylation of eIF2α on Ser51”. The “phosphorylated eIF2α at later times during treatment” value in assay [4] (2 mM LLOMe, later time points) is “reduced levels of phosphorylated eIF2α at later times”. The “eIF2α phosphorylation, dose dependence” value in assay [4] (setting [8]) is reported as “induced eIF2α phosphorylation”. For the same compound, the “pT389 S6K levels (mTOR activity)” value in the assay with mTOR [5] is on record as “drop in pT389 S6K levels”. For the same compound, the “G3BP1+ SGs associated with lysosomes (LAMP2)” value in assay [6] is recorded as 10%. Also, in [7] (setting [9]), the “number of SGs upon LLOMe washout” value was “reduction in the number of SGs”. Moreover, in assay [7] (agent alone for 30 min (2 mM LLOMe, 200 μM GPN, 400 μg/mL silica, 4 mM LOMe)), the “SG formation response (G3BP1 puncta)” value was “robust SG formation response”.
